Results as given in paper PMC10004195, “Novel Dual-Target Kinase Inhibitors of EGFR and ALK Were Designed, Synthesized, and Induced Cell Apoptosis in Non-Small Cell Lung Cancer” (Molecules, 2023).
Where two headings read alike, the source gives them in different places.

Key:
[1] = system: H1975 (EGFR T790M/L858R) cells; assay: CCK8 antiproliferative assay, H1975 cells; format: cell-based, human
Excerpt: (§1) The human cancer cell lines (H1975, H2228) used in this study were purchased from the Guangzhou ginny ou biotechnology Co., Ltd. (Guangzhou, China). The human cancer cell lines (NCI-H522) used in this study were purchased from the Shenzhen Haodi Huatuo Biotechnology Co., LTD (Shenzhen, China). The human cancer cell lines (LOVO, HLF, BJ, LO2) used in this study were purchased from the Laboratory Animal Service Center at Sun Yat-sen University (Guangzhou, China). […] Cell lines LOVO, HLF, BJ, and LO2 were cultivated in DMEM containing 10% (v/v) heat-inactivated fetal bovine serum (FBS), 100 units/mL penicillin, and 100 μg/mL streptomycin.

H522 cells = assay: CCK8 antiproliferative assay, H522 cells; format: cell-based; conditions: Homo sapiens, NCI-H522, 72 h
Excerpt: The human cancer cell lines (H1975, H2228) used in this study were purchased from the Guangzhou ginny ou biotechnology Co., Ltd. (Guangzhou, China). The human cancer cell lines (NCI-H522) used in this study were purchased from the Shenzhen Haodi Huatuo Biotechnology Co., LTD (Shenzhen, China). The human cancer cell lines (LOVO, HLF, BJ, LO2) used in this study were purchased from the Laboratory Animal Service Center at Sun Yat-sen University (Guangzhou, China). Cell lines were cultivated in 1640 containing 10% (v/v) heat-inactivated fetal bovine serum (FBS), 100 units/mL penicillin, and 100 μg/mL streptomycin. Cell lines LOVO, HLF, BJ, and LO2 were cultivated in DMEM containing 10% (v/v) heat-inactivated fetal bovine serum (FBS), 100 units/mL penicillin, and 100 μg/mL streptomycin.

H2228 (EML4-ALK) cells = assay: CCK8 antiproliferative assay, H2228 cells; format: cell-based, human; conditions: read-out: IC50 H2228
Excerpt: as §1

[2] = system: HUVEC (human umbilical vein endothelial cells); assay: Cytotoxicity test on nontumorigenic cells, HUVEC; format: cell-based; conditions: Homo sapiens; HUVEC, mean ± SE; read-out: Toxicity to normal cells, IC50 HUVEC
Excerpt: (§2) It is critical to evaluate the balance between the safety and efficacy of drugs for the development of new drugs; thus, we then conducted a cytotoxicity test on […] types of nontumorigenic cell lines from different origins, including LO2 (human normal liver cells), HK2 (human kidney proximal convoluted tubule epithelial cells), HLF (human embryonic lung fibroblast), 293A (human embryonic kidney cells), and HUVEC (human umbilical vein endothelial cells). […] In addition, we evaluated the compound’s safety in vivo by performing acute toxicity tests in mice, and 9j was injected intravenously at concentrations of 100 mg/kg, 150 mg/kg, and 300 mg/kg.
(§3) A total of 7000 cells per well were seeded in a 96-well plate with at least three technical replicates; then, exposed to different concentrations (10, 5, 1, 0.1, 0.05, 0.01 uM) of the test compounds for 72 h. After the treatment, CCK8 (Sigma, St. Louis, MO, USA) was added to each well under sterile conditions (to a final concentration of 10% of the total volume) and the plates were incubated for 2–4 h at 37 °C. Absorbance was measured at 450 nm in a microplate reader.

[3] = system: HK2 (human kidney proximal convoluted tubule epithelial cells); assay: Cytotoxicity test on nontumorigenic cells, HK2; format: cell-based; conditions: Homo sapiens, Epithelial cell; HK2, mean ± SE; read-out: Toxicity to normal cells, IC50 HK2
Excerpt: as §2, §3

[4] = system: HLF (human embryonic lung fibroblast); assay: Cytotoxicity test on nontumorigenic cells, HLF; format: cell-based; conditions: Homo sapiens, Fibroblast, read-out: Toxicity to normal cells, IC50 HLF
Excerpt: as §2, §3

[5] = system: 293A (human embryonic kidney cells); assay: Cytotoxicity test on nontumorigenic cells, 293A; format: cell-based; conditions: Homo sapiens, 293A, read-out: Toxicity to normal cells, IC50 293A
Excerpt: as §2, §3

[6] = system: LO2 (human normal liver cells); assay: Cytotoxicity test on nontumorigenic cells, LO2; format: cell-based; conditions: Homo sapiens; LO2, mean ± SE; read-out: Toxicity to normal cells, IC50 LO2
Excerpt: as §2, §3

[7] = Homo sapiens, NCI-H1975, 72 h, CCK8 assay, 72 h, H1975 (EGFR T790M/L858R), read-out: IC50 H1975
[8] = Homo sapiens, NCI-H2228, 72 h, CCK8 assay, 72 h, H2228 (EML4-ALK)
[9] = CCK8 assay, 72 h, H1975 (EGFR T790M/L858R), read-out: IC50 H1975

`C=CC(=O)Nc1cc(Nc2ncc(Cl)c(Nc3ccccc3[S+]([O-])C3CC3)n2)c(OC)cc1C1CCN(C)CC1` (stereo not shown) [9a, N-(5-((5-Chloro-4-((2-(cyclopropylsulfinyl)phenyl)amino)pyrimidin-2-yl)amino)-4-methoxy-2-(1-methylpiperidin-4-yl)phenyl)acrylamide] was tested, and the IC50 [1, 7] was 451 ± 70 nM, the IC50 (H522 cells) was > 10000 nM and the IC50 (H2228 (EML4-ALK) cells; [8]) was 121 ± 90 nM.
In the case of `C=CC(=O)Nc1cc(Nc2ncc(Cl)c(Nc3ccccc3[S+]([O-])CC3CC3)n2)c(OC)cc1C1CCN(C)CC1` (stereo not shown) [9b, N-(5-((5-Chloro-4-((2-((cyclopropylmethyl)sulfinyl)phenyl)amino)pyrimidin-2-yl)amino)-4-methoxy-2-(1-methylpiperidin-4-yl)phenyl)acrylamide], the IC50 [1, 9] is reported as 69 ± 7 nM, the IC50 [1, 7] is reported as 68.9 nM and the IC50 (H522 cells) is reported as > 10000 nM. It also gave an IC50 (H2228 (EML4-ALK) cells; CCK8 assay, 72 h, H2228 (EML4-ALK)) of 99 ± 7 nM and an IC50 (H2228 (EML4-ALK) cells; [8]) of 98.9 nM.
For `C=CC(=O)Nc1cc(Nc2ncc(Cl)c(Nc3ccc(F)cc3[S+]([O-])CC3CC3)n2)c(OC)cc1C1CCN(C)CC1` (stereo not shown) [9c, N-(5-((5-Chloro-4-((2-((cyclopropylmethyl)sulfinyl)-4-fluorophenyl)amino)pyrimidin-2-yl)amino)-4-methoxy-2-(1-methylpiperidin-4-yl)phenyl)acrylamide], the IC50 [1, 7] was 271 ± 130 nM, the IC50 (H522 cells) was > 10000 nM and the IC50 (H2228 (EML4-ALK) cells; [8]) was 103 ± 70 nM.
With `C=CC(=O)Nc1cc(Nc2ncc(Cl)c(Nc3ccc(Cl)cc3[S+]([O-])CC3CC3)n2)c(OC)cc1C1CCN(C)CC1` (stereo not shown) [9d, N-(5-((5-Chloro-4-((4-chloro-2-((cyclopropylmethyl)sulfinyl)phenyl)amino)pyrimidin-2-yl)amino)-4-methoxy-2-(1-methylpiperidin-4-yl)phenyl)acrylamide] the IC50 [1, 7] was 114 ± 80 nM, the IC50 (H522 cells) was > 10000 nM and the IC50 (H2228 (EML4-ALK) cells; [8]) was 89 ± 30 nM.
For `C=CC(=O)Nc1cc(Nc2ncc(Cl)c(Nc3ccccc3[S+]([O-])CC)n2)c(OC)cc1C1CCN(C)CC1` (stereo not shown) [9e, N-(5-((5-Chloro-4-((2-(ethylsulfinyl)phenyl)amino)pyrimidin-2-yl)amino)-4-methoxy-2-(1-methylpiperidin-4-yl)phenyl)acrylamide], the IC50 [1, 7] was 170 ± 20 nM, the IC50 (H522 cells) was > 10000 nM and the IC50 (H2228 (EML4-ALK) cells; [8]) was 97.7 ± 50 nM.
In the case of `C=CC(=O)Nc1cc(Nc2ncc(Cl)c(Nc3ccc(F)cc3[S+]([O-])CC)n2)c(OC)cc1C1CCN(C)CC1` (stereo not shown) [9f, N-(5-((5-Chloro-4-((2-(ethylsulfinyl)-4-fluorophenyl)amino)pyrimidin-2-yl)amino)-4-methoxy-2-(1-methylpiperidin-4-yl)phenyl)acrylamide], the IC50 [1, 7] is reported as 550 ± 90 nM, the IC50 (H522 cells) is reported as > 10000 nM and the IC50 (H2228 (EML4-ALK) cells; [8]) is reported as 92.8 ± 60 nM.
`C=CC(=O)Nc1cc(Nc2ncc(Cl)c(Nc3ccc(Cl)cc3[S+]([O-])CC)n2)c(OC)cc1C1CCN(C)CC1` (stereo not shown) [9g, N-(5-((5-Chloro-4-((4-chloro-2-(ethylsulfinyl)phenyl)amino)pyrimidin-2-yl)amino)-4-methoxy-2-(1-methylpiperidin-4-yl)phenyl)acrylamide] was tested, and the IC50 [1, 7] was 69 ± 10 nM, the IC50 (H522 cells) was > 10000 nM and the IC50 (H2228 (EML4-ALK) cells; [8]) was 104 ± 50 nM.
`C=CC(=O)Nc1cc(Nc2ncc(Cl)c(Nc3ccccc3[S+]([O-])C(C)C)n2)c(OC)cc1C1CCN(C)CC1` (stereo not shown) [9h, N-(5-((5-Chloro-4-((2-(isopropylsulfinyl)phenyl)amino)pyrimidin-2-yl)amino)-4-methoxy-2-(1-methylpiperidin-4-yl)phenyl)acrylamide] was tested, and the IC50 [1, 9] was 83.9 ± 30 nM, the IC50 [1, 7] was 68.9 to 78.2 nM and the IC50 (H522 cells) was > 10000 nM. It also gave an IC50 (H2228 (EML4-ALK) cells; [8]) of 76.6 ± 20 nM.
For `C=CC(=O)Nc1cc(Nc2ncc(Cl)c(Nc3ccc(F)cc3[S+]([O-])C(C)C)n2)c(OC)cc1C1CCN(C)CC1` (stereo not shown) [9i, N-(5-((5-Chloro-4-((4-fluoro-2-(isopropylsulfinyl)phenyl)amino)pyrimidin-2-yl)amino)-4-methoxy-2-(1-methylpiperidin-4-yl)phenyl)acrylamide], the IC50 [1, 7] was 309 ± 110 nM, the IC50 (H522 cells) was > 10000 nM and the IC50 (H2228 (EML4-ALK) cells; [8]) was 98.1 ± 60 nM.
`Cc1cc(Nc2ncc(Cl)c(Nc3ccccc3S(=O)(=O)C(C)C)n2)c(OC(C)C)cc1C1CCNCC1` [Ceritinib, reference compound] showed an IC50 [1, 7] of 78.3 ± 30 nM and an IC50 (H2228 (EML4-ALK) cells; [8]) of 22.1 ± 8 nM.
`C=CC(=O)Nc1cc(Nc2nccc(-c3cn(C)c4ccccc34)n2)c(OC)cc1N(C)CCN(C)C` [Osimertinib, reference compound] gave an IC50 [2] of 4340 ± 10 nM, an IC50 [3] of 2130 ± 90 nM and an IC50 ([1]; Homo sapiens, NCI-H1975, 72 h, read-out: IC50 H1975) of 4.1 ± 1 nM. It also gave an IC50 ([1]; Homo sapiens, NCI-H1975, read-out: IC50 H1975 (Table 2)) of 4.1 ± 1 nM, an IC50 [4] of 3240 ± 80 nM and an IC50 [5] of 2250 ± 20 nM. The IC50 [6] was 1720 ± 50 nM and the IC50 (H2228 (EML4-ALK) cells; Homo sapiens, NCI-H2228, 72 h) was 2016 ± 8 nM.
